Assay results from US7612200B2, “Inhibitors of protein kinases” (Locus Pharmaceuticals, Inc., priority 2004, dated 2009).

Experiments:
Format in all cases: biochemical
Mnk2 = Mnk2 (Homo sapiens, UniProt Q9HBH9); test: Protein kinase inhibition, Mnk2; conditions: Rate (μM) 2, read-out: % Control
TAK1 = TAK1 (Homo sapiens, UniProt O43318); test: Protein kinase inhibition, TAK1; conditions: Rate (μM) 2, read-out: % Control
MKK6 = MKK6 (Homo sapiens, UniProt P52564); test: Protein kinase inhibition, MKK6; conditions: Rate (μM) 2, read-out: % Control
Chain of MKK6 (P52564 whole entry): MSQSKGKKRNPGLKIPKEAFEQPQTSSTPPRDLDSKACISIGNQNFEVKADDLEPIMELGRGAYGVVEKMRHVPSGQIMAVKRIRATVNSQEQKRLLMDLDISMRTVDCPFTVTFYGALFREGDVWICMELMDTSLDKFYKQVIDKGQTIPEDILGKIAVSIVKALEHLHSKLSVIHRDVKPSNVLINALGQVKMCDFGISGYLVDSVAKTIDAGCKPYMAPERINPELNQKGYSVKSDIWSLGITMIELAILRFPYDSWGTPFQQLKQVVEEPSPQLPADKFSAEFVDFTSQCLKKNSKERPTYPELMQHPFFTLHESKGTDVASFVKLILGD

JNK3 = JNK3 (Homo sapiens, UniProt P53779); test: JNK3 Kinase Activity; conditions: compound at 2 μm
Chain of JNK3 (P53779 whole entry): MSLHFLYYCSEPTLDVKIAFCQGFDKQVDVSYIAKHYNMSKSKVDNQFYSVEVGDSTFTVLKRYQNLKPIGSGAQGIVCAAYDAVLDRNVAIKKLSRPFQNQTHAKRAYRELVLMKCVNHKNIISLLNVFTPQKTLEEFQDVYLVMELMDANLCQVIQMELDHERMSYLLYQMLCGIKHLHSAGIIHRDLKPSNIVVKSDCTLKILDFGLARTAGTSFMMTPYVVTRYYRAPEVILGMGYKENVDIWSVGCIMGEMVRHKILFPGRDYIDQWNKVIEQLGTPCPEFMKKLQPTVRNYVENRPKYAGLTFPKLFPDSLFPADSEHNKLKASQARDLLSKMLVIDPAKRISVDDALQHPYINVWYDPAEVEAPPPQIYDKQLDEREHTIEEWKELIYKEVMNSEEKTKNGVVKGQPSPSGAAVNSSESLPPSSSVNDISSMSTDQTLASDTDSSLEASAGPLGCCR
Procedure: (§1) JNK3 Kinase Activity: In a final reaction volume of 25 μl, JNK3 (h) (5-10 mU) is incubated with 50 mM Tris pH 7.5, 0.1 mM EGTA, 0.1% β-mercaptoethanol, 250 μM peptide, 10 mM MgAcetate and [γ-^33P-ATP] (specific activity approx. 500 cpm/pmol, concentration as required). The reaction is initiated by the addition of the MgATP mix. After incubation for 40 minutes at room temperature, the reaction is stopped by the addition of 5 μl of a 3% phosphoric acid solution. 10 μl of the reaction is then spotted onto a P30 filtermat and washed three times for 5 minutes in 75 mM phosphoric acid and once in methanol prior to drying and scintillation counting.

TrkB = TrkB (Homo sapiens, UniProt Q16620); test: TrkB Kinase Activity
Chain of TrkB (Q16620 32-822): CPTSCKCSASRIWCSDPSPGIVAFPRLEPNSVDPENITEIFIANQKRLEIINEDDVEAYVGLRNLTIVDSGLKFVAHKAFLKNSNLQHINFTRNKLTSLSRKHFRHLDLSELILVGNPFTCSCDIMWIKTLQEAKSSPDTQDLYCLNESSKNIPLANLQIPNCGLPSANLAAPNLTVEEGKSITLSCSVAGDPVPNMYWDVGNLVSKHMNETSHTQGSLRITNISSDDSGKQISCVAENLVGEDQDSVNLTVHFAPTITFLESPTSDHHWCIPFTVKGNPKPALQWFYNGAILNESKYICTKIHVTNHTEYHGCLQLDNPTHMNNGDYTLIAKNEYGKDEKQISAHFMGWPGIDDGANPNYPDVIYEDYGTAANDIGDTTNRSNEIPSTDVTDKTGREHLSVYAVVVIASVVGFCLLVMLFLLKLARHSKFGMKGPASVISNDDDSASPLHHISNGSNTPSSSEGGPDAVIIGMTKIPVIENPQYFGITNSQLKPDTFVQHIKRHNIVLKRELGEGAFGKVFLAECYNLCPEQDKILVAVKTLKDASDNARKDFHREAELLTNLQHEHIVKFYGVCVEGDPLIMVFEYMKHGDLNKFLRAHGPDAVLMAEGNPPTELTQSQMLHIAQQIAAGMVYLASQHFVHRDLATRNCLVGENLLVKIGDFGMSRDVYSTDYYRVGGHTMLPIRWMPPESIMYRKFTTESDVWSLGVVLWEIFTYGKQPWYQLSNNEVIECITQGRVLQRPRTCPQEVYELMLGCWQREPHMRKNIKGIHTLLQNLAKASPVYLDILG
Procedure: (§2) TrkB Kinase Activity: In a final reaction volume of 25 μl, TrkB (h) (5-10 mU) is incubated with 8 mM MOPS pH 7.0, 0.2 mM EDTA, 0.1 mg/ml poly(Glu, Tyr) 4:1, 10 mM MgAcetate and [γ-^33P-ATP] (specific activity approx. 500 cpm/pmol, concentration as required). The reaction is initiated by the addition of the MgATP mix. After incubation for 40 minutes at room temperature, the reaction is stopped by the addition of 5 μl of a 3% phosphoric acid solution. 10 μl of the reaction is then spotted onto a Filtermat A and washed three times for 5 minutes in 75 mM phosphoric acid and once in methanol prior to drying and scintillation counting.

TrkA = TrkA (Homo sapiens, UniProt P04629); test: Protein kinase inhibition, TrkA; conditions: Rate (μM) 2, read-out: % Control
Flt3 = target: T1, Flt3 (Homo sapiens, UniProt P36888); test: Flt3 Kinase Activity
T1 sequence (P36888 27-993): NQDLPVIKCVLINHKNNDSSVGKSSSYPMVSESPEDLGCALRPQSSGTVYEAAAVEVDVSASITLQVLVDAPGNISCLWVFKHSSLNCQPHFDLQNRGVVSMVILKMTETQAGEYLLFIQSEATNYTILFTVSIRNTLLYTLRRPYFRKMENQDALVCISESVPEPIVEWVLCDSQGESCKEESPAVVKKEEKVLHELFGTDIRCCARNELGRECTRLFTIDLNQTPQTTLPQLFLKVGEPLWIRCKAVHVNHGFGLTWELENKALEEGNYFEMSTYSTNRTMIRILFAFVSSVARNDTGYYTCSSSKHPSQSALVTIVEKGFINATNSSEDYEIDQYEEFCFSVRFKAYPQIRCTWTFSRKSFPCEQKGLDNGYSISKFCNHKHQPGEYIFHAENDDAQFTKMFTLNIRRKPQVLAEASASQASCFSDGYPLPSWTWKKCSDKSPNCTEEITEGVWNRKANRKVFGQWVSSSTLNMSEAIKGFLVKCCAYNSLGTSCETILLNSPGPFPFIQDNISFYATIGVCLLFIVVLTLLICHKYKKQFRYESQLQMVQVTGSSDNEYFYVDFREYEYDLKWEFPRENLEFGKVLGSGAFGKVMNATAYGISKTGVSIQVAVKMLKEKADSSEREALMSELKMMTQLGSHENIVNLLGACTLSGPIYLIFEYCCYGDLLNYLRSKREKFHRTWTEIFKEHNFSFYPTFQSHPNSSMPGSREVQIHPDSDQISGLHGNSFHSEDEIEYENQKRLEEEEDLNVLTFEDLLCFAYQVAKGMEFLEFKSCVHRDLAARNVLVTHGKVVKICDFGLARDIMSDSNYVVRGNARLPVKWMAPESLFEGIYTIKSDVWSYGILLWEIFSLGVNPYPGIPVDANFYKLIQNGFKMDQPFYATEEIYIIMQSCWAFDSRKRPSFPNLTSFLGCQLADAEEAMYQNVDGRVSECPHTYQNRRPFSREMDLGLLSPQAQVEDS
Procedure: as §2, with “Flt3 Kinase Activity:” for “TrkB Kinase Activity:”, “25 μl, Flt3 (h) (5-10” for “25 μl, TrkB (h) (5-10”, “mM EDTA, 50 μM EAIYAAPFAKKK, 10 mM” for “mM EDTA, 0.1 mg/ml poly(Glu, Tyr) 4:1, 10 mM”, “of […] of a” for “of 5 μl of a”, “solution. […] of the” for “solution. 10 μl of the”, “onto a P30 filtermat and washed” for “onto a Filtermat A and washed”

EphA5 = EphA5 (Homo sapiens, UniProt P54756); test: Protein kinase inhibition, EphA5; conditions: Rate (μM) 2
Chain of EphA5 (P54756 25-1037): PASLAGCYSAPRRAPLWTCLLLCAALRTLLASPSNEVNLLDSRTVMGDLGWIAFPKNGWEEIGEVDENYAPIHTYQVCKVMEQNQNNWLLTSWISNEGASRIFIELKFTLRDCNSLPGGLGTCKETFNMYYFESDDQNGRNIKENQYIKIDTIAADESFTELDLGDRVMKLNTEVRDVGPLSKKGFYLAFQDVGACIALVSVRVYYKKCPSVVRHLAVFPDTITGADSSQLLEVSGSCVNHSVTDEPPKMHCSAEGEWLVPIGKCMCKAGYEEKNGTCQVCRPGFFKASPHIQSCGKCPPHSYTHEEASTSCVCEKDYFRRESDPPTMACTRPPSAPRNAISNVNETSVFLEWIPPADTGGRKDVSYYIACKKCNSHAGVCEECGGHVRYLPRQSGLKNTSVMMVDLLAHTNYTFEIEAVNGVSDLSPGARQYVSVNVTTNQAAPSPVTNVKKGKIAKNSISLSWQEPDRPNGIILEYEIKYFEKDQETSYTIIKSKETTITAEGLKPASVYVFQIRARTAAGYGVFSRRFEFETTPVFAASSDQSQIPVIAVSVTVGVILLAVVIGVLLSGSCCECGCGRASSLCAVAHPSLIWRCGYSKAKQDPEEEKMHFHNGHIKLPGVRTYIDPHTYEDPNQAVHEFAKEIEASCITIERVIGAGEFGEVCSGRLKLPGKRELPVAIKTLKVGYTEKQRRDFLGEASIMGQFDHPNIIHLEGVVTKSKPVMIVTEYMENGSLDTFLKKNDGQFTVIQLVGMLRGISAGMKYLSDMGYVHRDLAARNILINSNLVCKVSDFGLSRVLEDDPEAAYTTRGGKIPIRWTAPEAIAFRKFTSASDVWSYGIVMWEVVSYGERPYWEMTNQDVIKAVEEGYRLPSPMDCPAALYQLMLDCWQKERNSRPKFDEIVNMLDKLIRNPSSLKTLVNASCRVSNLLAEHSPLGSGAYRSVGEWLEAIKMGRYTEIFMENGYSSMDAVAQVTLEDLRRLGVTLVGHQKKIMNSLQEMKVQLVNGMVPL

Ret = Ret (Homo sapiens, UniProt P07949); test: Protein kinase inhibition, Ret; conditions: Rate (μM) 2, read-out: % Control
Pyk2 = Pyk2 (Homo sapiens, UniProt Q14289); test: Protein kinase inhibition, Pyk2; conditions: Rate (μM) 2, read-out: % Control
Chain of Pyk2 (Q14289 whole entry): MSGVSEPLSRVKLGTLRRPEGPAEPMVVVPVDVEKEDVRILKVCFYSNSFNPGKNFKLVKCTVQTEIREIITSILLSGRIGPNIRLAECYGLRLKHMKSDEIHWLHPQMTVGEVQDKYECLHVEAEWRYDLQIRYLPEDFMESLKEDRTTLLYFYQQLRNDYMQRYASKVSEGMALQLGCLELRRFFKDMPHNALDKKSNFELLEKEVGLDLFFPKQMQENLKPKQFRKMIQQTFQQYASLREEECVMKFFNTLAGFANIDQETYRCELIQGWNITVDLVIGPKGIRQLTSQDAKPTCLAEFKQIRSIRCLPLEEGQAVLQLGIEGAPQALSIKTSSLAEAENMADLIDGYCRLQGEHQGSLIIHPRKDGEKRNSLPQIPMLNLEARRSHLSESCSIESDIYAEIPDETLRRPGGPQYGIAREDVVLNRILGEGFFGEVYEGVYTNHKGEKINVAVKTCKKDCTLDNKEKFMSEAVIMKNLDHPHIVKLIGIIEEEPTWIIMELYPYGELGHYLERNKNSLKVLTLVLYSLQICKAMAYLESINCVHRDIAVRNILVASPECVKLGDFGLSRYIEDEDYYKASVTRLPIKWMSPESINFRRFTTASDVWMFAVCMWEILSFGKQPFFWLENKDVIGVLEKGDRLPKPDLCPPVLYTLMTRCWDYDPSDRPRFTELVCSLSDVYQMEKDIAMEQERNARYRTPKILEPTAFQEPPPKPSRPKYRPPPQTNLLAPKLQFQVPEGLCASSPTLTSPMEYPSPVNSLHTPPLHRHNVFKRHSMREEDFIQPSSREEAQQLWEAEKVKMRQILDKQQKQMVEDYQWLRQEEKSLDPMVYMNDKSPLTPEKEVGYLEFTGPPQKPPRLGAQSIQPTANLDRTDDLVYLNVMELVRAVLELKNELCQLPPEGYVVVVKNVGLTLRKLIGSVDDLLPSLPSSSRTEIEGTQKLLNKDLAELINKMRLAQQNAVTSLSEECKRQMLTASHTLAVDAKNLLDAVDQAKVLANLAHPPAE

JNK2α2 = JNK2α2 (Homo sapiens, UniProt P45984); test: JNK2α2 Kinase Activity
Chain of JNK2α2 (P45984 whole entry): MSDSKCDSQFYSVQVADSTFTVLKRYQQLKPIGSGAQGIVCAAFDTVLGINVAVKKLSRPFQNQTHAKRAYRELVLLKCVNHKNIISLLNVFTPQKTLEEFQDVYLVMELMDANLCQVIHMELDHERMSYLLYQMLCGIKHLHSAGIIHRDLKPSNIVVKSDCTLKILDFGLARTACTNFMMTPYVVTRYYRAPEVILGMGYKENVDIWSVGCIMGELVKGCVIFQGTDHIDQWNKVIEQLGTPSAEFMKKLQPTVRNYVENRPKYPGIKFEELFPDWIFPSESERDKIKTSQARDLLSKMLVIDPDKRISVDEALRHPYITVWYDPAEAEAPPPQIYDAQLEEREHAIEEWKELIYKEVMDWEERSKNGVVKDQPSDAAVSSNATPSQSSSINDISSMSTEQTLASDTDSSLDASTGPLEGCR
Procedure: as §1, with “JNK2α2” for “JNK3”, “3” for “250”, “ATF2,” for “peptide,”

EphA2 = EphA2 (Homo sapiens, UniProt P29317); test: Protein kinase inhibition, EphA2; conditions: Rate (μM) 2, read-out: % Control

Chain of TAK1 (O43318 1-303 limits assumed): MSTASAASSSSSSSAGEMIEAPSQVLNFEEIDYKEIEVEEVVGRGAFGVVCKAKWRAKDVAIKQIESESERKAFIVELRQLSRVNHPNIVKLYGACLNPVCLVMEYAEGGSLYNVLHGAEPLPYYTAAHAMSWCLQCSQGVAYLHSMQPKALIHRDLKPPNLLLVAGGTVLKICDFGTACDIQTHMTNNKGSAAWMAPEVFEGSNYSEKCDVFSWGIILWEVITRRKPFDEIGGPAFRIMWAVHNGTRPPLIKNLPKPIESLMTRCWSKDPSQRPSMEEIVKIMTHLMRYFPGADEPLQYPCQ
Chain of Mnk2 (Q9HBH9 whole entry): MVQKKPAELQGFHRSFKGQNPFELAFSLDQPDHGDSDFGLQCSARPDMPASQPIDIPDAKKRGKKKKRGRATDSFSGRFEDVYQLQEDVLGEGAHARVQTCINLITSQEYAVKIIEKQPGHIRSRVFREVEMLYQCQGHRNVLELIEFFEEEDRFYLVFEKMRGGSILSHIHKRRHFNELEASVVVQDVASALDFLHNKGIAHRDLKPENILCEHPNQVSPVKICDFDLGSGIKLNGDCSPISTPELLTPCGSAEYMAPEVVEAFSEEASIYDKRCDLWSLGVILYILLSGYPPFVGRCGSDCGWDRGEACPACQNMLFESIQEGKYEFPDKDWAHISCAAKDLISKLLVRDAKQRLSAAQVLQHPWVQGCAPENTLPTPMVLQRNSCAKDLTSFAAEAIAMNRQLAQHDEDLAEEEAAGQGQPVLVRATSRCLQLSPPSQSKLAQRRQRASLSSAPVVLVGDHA

remaining activity at 2 µM (Mnk2): 76 to 100%
remaining activity at 2 µM (TAK1): 76 to 100%
remaining activity at 2 µM (MKK6): 76 to 100%
% Inhibition at 2 μm (JNK3): 0-25%
remaining activity at 2 µM (TrkB; 40 min, Human, Rate (μM) 2, read-out: % Control): 76 to 100%
% Inhibition at 2 μm (TrkB; compound at 2 μm): 76-100%
remaining activity at 2 µM (TrkA): 76 to 100%
remaining activity at 2 µM (Flt3; 40 min, Flt3, Human, Rate (μM) 2, read-out: % Control): 76 to 100%
% Inhibition at 2 μm (Flt3; Flt3, compound at 2 μm): 76-100%
% Control (EphA5): 76-100%
remaining activity at 2 µM (Ret): 76 to 100%
remaining activity at 2 µM (Pyk2): 51 to 75%
% Inhibition at 2 μm (JNK2α2; JNK2a2, compound at 2 μm): 26-50%
% inhibition (JNK2α2; JNK2α2, Human, Rate (μM) 2): 26-50%
remaining activity at 2 µM (EphA2): 76 to 100%
Compound: CC(C)(C)c1cc(C(=O)N2CCS(=O)(=O)CC2)c(NC(=O)Nc2ccc(Oc3ccncc3)cc2)s1 [Example 3, 1-[5-tert-Butyl-3-(1,1-dioxo-1λ^6-thiomorpholine-4-carbonyl)thiophen-2-yl]-3-[4-(pyridin-4-yloxy)phenyl]urea]
